According to patent US5773437A, “Alkylenediamine derivatives” (Nippon Chemiphar Co., Ltd., priority 1994, dated 1998):
Where a name gives a salt, the structure may show the parent alone.

Key:
[1] = Mouse acute toxicity LD50 (i.v.), Probit method; assay type: in vivo; conditions: calculated by Probit method; for LD50: in vivo, iv
Source text: The results seen in Table 4 clearly indicate that the compound of the invention is effective in relieving urinating contraction. Further, the toxicity of the compound is set forth in Table 4 in terms of LD50 (mg/kg) calculated by Probit method.

[2] = tested on: bladder (urinating contraction); assay: Period of inhibition of rhythmic bladder contraction (urinating contraction) in urethane-anesthetized rats; assay type: in vivo, rat (Wistar strain, male); conditions: rat, saline control 1.6 min
Description: The compound of the invention was evaluated in urinating contraction of bladder by the following test method.
A male rat (Wistar strain) was fixed on his back under urethane anesthesia (1.5 g/kg, S.C.). A tracheal cannula was inserted into the rat to respire easily, and its hypogastrium was subjected to median dissection for exposing its bladder. A small opening was made on the top of the bladder to remove urine. To the bladder was inserted a polyethylene cannula. The bladder system was made to closed system by ligating urethra and ureter.
A physiological saline was injected into the bladder of rat at a rate of 0.05 mL/min. using a continuous injector so as to cause periodical urinating contraction. The intravesical pressure of the bladder was measured by means of a pressure transducer. The measured value was recorded on a pen-writing recorder. The compound to be tested was dissolved in a physiological saline and administered into the femoral vein using the polyethylene cannula.
The action for relieving urinating contraction was evaluated by measuring a period of time during which the rhythimic bladder contraction was inhibited (period of contraction inhibition).
The compounds tested were those obtained in the working examples.

[3] = 6 mg/kg i.v., Hydrochloride, 6 mg/kg
[4] = 6 mg/kg i.v., Fumarate, 6 mg/kg

Row | Structure (SMILES) | LD50 [1] | Period of Contraction Inhibition ([2]; 8 mg/kg i.v.) | further results
1 | CC(=O)N1CCN(CCC(c2ccccc2)N2C(=O)c3ccccc3S2(=O)=O)CC1 (stereo not drawn) [Example XI, 2-[3-(4-Acetyl-1-piperazinyl)-1-pheny]propyl-1,2-benzisothiazol-3(2H)-one 1,1-Dioxide Fumarate] | 170 mg/kg |  | Period of Contraction Inhibition ([2]; 17 mg/kg i.v.): 6.0 min
2 | O=C1c2ccccc2S(=O)(=O)N1C(CCN1CCSCC1)c1ccccc1 (stereo not drawn) [Example II, 2-(1-Phenyl-3-thiomorpholino)propyl-1,2-benzisothiazol-3(2H)-one 1,1-Dioxide Fumarate] | 47 mg/kg |  | Period of Contraction Inhibition ([2]; 5 mg/kg i.v.): 3.8 min
3 | O=C1c2ccccc2S(=O)(=O)N1C(CCN1CCN(c2ncccn2)CC1)c1ccccc1 (stereo not drawn) [Example XII, 2-[1-Phenyl-3-[4-(2-pyrimidinyl)-1-piperazinyl]propyl-1,2-benzisothiazol-3(2H)-one 1,1-Dioxide Hydrochloride] | > 200 mg/kg |  | Period of Contraction Inhibition ([2]; 20 mg/kg i.v.): 3.5 min
4 | Cl.O=C1CN(CCCN2CCC(Cc3ccccc3)CC2)S(=O)(=O)c2ccccc21 [Example 10, 2-[3-(4-Benzylpiperidino)propyl)-2H-1,2-benzothiazin-4(3H)-one 1,1-Dioxide Hydrochloride] | 3 mg/kg | 14.5 min | 
5 | Cl.O=C1CN(CCCN2CCN(Cc3ccccc3)CC2)S(=O)(=O)c2ccccc21 [Example 14, 2-[3-(4-Benzyl-1-piperazinyl)propyl]-2H-1,2-benzothiazin-4(3H)-one 1,1-Dioxide Hydrochloride] | 17 mg/kg | 12.7 min | 
6 | Cl.O=C1CN(CCCN2CCN(C(c3ccccc3)c3ccccc3)CC2)S(=O)(=O)c2ccccc21 [Example 12, 2-[3-(4-Diphenylmethyl-1-piperazinyl)propyl]-2H-1,2-benzothiazin-4(3H)-one 1,1-Dioxide Hydrochloride] |  | 2.5 min | 
7 | N#CC1(c2ccccc2)CCN(CCCN2CC(=O)c3ccccc3S2(=O)=O)CC1.O=C(O)/C=C/C(=O)O [Example 32, 2-[3-(4-Cyano-4-phenylpiperidino)propyl]-2H-1,2-benzothiazin-4(3H)-one 1,1-Dioxide Fumarate] |  | 6 min | 
8 | Cl.O=C1CN(C(CCN2CCOCC2)c2ccccc2)S(=O)(=O)c2ccccc21 (single isomer, unassigned; (+)) [Example 20[C]] [(+)-2-(3-Morpholino-1-phenylpropyl)-2H-1,2-benzothiazin-4(3H)-one 1,1-Dioxide Hydrochloride] |  |  | Mouse LD50 ([1]; Hydrochloride): 180 mg/kg; Period of Contraction Inhibition [2, 3]: 6.0 min
9 | O=C(O)/C=C/C(=O)O.O=C1c2ccccc2CS(=O)(=O)N1C(CCN1CCOCC1)c1ccccc1 (single isomer, unassigned; (+)) [Example 24[C]] [(+)-3-(3-Morpholino-1-phenylpropyl)-1H-2,3-benzothiazin-4(3H)-one 2,2-Dioxide Fumarate] |  |  | Mouse LD50 ([1]; Fumarate): 167 mg/kg; Period of Contraction Inhibition [2, 4]: 0.7 min
10 | Cl.O=C1CN(C(CCN2CCOCC2)c2ccccc2)S(=O)(=O)c2ccccc21 (single isomer, unassigned; (-)) [Example 20[B], (-)-2-(3-Morpholino-1-phenylpropyl)-2H-1,2-benzothiazin-4(3H)-one 1,1-Dioxide Hydrochloride] | 140 mg/kg |  | 
11 | O=C(O)/C=C/C(=O)O.O=C1c2ccccc2CS(=O)(=O)N1C(CCN1CCOCC1)c1ccccc1 (single isomer, unassigned; (-)) [Example 24[B]] [(-)-3-(3-Morpholino-1-phenylpropyl)-1H-2,3-benzothiazin-4(3H)-one 2,2-Dioxide Fumarate] |  |  | Mouse LD50 ([1]; Fumarate): 32 mg/kg; Period of Contraction Inhibition [2, 4]: 8.5 min
12 | CCCCN(CCCN1CC(=O)c2ccccc2S1(=O)=O)Cc1ccccc1.Cl [Example 11, 2-[3-(N-Benzyl-N-butylamino)propyl]-2H-1,2-benzothiazin-4(3H)-one 1,1-Dioxide Hydrochloride] | 37 mg/kg | 3.9 min | 
13 | CS(=O)(=O)O.O=C1c2ccccc2CS(=O)(=O)N1C(CCN1CCSCC1)c1ccccc1 (stereo not drawn) [Example 26, 3-(1-Phenyl-3-thiomorpholinopropyl)-1H-2,3-benzothiazin-4(3H)-one 2,2-Dioxide Mesylate] | 37 mg/kg |  | Period of Contraction Inhibition ([2]; 4 mg/kg i.v.): 7.3 min
14 | O=C(O)/C=C/C(=O)O.O=C1c2ccccc2CS(=O)(=O)N1CCCN1CCC(Cc2ccccc2)CC1 [Example 3, 3-[3-(4-Benzylpiperidino)propyl]-1H-2,3-benzothiazin-4(3H)-one 2,2-Dioxide Fumarate] |  | 2 min | 
15 | O=C1CN(CCCN2CCc3ccccc3C2)S(=O)(=O)c2ccccc21 [Example 15, 2-[3-[2-(1,2,3,4-Tetrahydroisoquinolyl)]propyl]-2H-1,2-benzothiazin-4(3H)-one 1,1-Dioxide Hydrochloride] | 23 mg/kg | 4.7 min | 
16 | Cl.O=C1CN(CCCN2CCC(Oc3ccccc3)CC2)S(=O)(=O)c2ccccc21 [Example 1, 2-[3-(4-Phenoxypiperidino)propyl]-2H-1,2-benzothiazin-4(3H)-one 1,1-dioxide Hydrochloride] |  |  | Period of Contraction Inhibition ([2]; 1 mg/kg i.v.): 2.8 min
17 | Cl.O=C1CN(C(CCN2CCOCC2)c2ccccc2)S(=O)(=O)c2ccccc21 (single isomer, unassigned; (-)) [Example 20[B]] [(-)-2-(3-Morpholino-1-phenylpropyl)-2H-1,2-benzothiazin-4(3H)-one 1,1-Dioxide Hydrochloride] |  |  | Period of Contraction Inhibition [2, 3]: 0.4 min
18 | Cl.O=C1CN(C(CCN2CCSCC2)c2ccccc2)S(=O)(=O)c2ccccc21 (stereo not drawn) [Example 21, 2-(1-Phenyl-3-thiomorpholinopropyl)-2H-1,2-benzothiazin-4(3H)-one 1,1-Dioxide Hydrochloride] | > 100 mg/kg |  | Period of Contraction Inhibition ([2]; 10 mg/kg i.v.): 7.0 min
19 | Cl.O=C1CN(C(CCN2CCOCC2)c2ccccc2)S(=O)(=O)c2ccccc21 (stereo not drawn) [Example 20[A], 2-(3-Morpholino-1-phenylpropyl)-2H-1,2-benzothiazin-4(3H)-one 1,1-Dioxide Hydrochloride] | > 120 mg/kg |  | Period of Contraction Inhibition ([2]; 12 mg/kg i.v.): 9.7 min
20 | O=C(O)/C=C/C(=O)O.O=C1c2ccccc2CS(=O)(=O)N1C(CCN1CCOCC1)c1ccccc1 (stereo not drawn) [Example 24[A], 3-(3-Morpholino-1-phenylpropyl)-1H-2,3-benzothiazin-4(3H)-one 2,2-Dioxide Fumarate] | 62 mg/kg |  | Period of Contraction Inhibition ([2]; 12 mg/kg i.v.): 5.6 min
21 | Cl.O=C1CN(CCCN2CCC(OCc3ccccc3)CC2)S(=O)(=O)c2ccccc21 [Example 2, 2-[3-(4-Benzyloxypiperidino)propyl]-2H-1,2-benzothiazin-4(3H)-one 1,1-Dioxide Hydrochloride] |  | 16 min | 
22 | Cl.O=C1CN(CCN2CCC(Cc3ccccc3)CC2)S(=O)(=O)c2ccccc21 [Example 13, 2-[2-(4-Benzylpiperidino)ethyl]-2H-1,2-benzothiazin-4(3H)-one 1,1-Dioxide Hydrochloride] |  | 18 min | 
23 | O=C1c2ccccc2S(=O)(=O)N1C(CCN1CCOCC1)c1ccccc1 (stereo not drawn) [Example IX, 2-(3-Morpholino-1-pheny)propyl-1,2-benzisothiazol-3(2H)-one 1,1-Dioxide Fumarate] | 48 mg/kg |  | Period of Contraction Inhibition ([2]; 5 mg/kg i.v.): 10.7 min
24 | N#CC1(c2ccccc2)CCN(CCC(c2ccccc2)N2CC(=O)c3ccccc3S2(=O)=O)CC1.O=C(O)/C=C/C(=O)O (stereo not drawn) [Example 34, 2-[3-(4-Cyano-4-phenylpiperidino)-1-phenylpropyl]-2H-1,2-benzothiazin-4(3H)-one 1,1-Dioxide Fumarate] |  | 3 min | 
